Measurements published in BindingDB's records for doi:10.1021/jm00164a044 (Niddk, 1990).

Experiment: Muscarinic acetylcholine receptor binding affinity was determined using [3H]NMS for NG108-15 neuroblastoma cells

Structure (SMILES)	Ki [nM]
CN(CC#CCN1CCCC1)C(=O)CCCCCCCNC(=O)OC(C)(C)C	1900
CN(CC#CCN1CCCC1)C(=O)CCCCCCN	3100
CC(=O)N(C)CC#CCN1CCCC1	4500
CN(CC#CCN1CCCC1)C(=O)CCCCCCCN	700
